The target of experiment [1] is 5-hydroxytryptamine receptor 2A (Rattus norvegicus, UniProt P14842). As to the kind of experiment: In vitro binding affinity towards serotonin 5-HT2A receptor in rat cortical membranes using [3H]ketanserin as radioligand. Format: cell membranes.
Experiment [2] concerns Mus musculus. Kind of experiment: In vivo inhibitory activity against mescaline-induced head twitches of mice after pretreatment for 15 hours upon peroral administration. Particulars: po. Format: functional.
Experiment [3] relates to Rattus norvegicus. Kind of experiment: In vivo inhibitory activity against mescaline-induced head twitches of rat after pretreatment for 1 hour upon peroral administration. Format: functional.
Experiment [4] concerns Mus musculus. Kind of experiment: In vivo inhibitory activity against mescaline-induced head twitches of mice after pretreatment for 1 hour upon subcutaneous administration. Format: functional. Particulars: sc.
The next experiment concerns the target Histamine H1 receptor (Homo sapiens, UniProt P35367). As to the kind of experiment: Binding affinity towards histamine H1 receptor.
For experiment [5], the target named is T1, Adrenergic receptor alpha-1 (Homo sapiens, UniProt P35348+P25100+P35368).
T1 sequence (P35348 whole entry): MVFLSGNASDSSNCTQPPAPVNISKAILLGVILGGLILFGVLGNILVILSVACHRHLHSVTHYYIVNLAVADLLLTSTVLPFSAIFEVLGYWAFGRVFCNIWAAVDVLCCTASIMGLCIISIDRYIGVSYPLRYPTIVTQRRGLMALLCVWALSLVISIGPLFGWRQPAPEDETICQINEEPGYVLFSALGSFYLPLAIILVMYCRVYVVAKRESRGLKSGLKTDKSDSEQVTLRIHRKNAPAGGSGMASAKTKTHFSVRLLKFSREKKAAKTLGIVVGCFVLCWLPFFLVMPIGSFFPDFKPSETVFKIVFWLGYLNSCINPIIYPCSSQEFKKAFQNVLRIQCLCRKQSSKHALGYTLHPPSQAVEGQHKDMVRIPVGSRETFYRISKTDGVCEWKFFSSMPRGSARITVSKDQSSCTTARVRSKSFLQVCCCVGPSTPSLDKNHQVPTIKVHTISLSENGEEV
T1 sequence (P25100 whole entry): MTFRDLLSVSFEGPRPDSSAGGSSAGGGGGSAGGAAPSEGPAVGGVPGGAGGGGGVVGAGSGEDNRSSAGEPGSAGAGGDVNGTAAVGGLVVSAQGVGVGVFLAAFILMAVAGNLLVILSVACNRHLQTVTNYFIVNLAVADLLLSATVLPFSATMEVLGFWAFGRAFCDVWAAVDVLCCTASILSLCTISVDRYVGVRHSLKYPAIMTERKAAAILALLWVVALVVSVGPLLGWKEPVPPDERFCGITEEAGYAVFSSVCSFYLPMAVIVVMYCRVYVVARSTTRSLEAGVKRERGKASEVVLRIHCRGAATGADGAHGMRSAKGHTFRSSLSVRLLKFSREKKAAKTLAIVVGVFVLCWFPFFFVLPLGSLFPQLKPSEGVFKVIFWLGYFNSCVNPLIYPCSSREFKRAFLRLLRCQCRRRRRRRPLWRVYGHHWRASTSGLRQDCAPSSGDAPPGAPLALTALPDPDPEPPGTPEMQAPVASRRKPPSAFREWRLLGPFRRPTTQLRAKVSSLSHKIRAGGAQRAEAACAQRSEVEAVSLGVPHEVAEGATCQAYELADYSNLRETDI
T1 sequence (P35368 whole entry): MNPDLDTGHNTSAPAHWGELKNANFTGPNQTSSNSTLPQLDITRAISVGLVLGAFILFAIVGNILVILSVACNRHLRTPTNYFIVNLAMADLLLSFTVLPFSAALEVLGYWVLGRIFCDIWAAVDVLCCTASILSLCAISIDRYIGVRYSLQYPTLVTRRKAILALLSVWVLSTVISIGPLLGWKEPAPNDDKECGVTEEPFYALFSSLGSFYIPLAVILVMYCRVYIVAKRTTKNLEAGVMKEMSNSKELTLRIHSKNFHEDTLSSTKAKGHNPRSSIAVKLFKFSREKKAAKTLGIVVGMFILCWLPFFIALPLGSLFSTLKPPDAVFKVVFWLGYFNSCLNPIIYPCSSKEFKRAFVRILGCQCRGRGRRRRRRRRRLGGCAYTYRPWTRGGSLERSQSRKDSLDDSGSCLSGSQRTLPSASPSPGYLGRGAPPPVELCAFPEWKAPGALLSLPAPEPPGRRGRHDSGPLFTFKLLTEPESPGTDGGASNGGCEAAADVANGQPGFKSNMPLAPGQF
Kind of experiment: Binding affinity towards Alpha-1 adrenergic receptor. Format: protein assay.

The target in experiment [6] is T2, Muscarinic acetylcholine receptor M4 (Homo sapiens, UniProt P08173).
T2 sequence (P08173 whole entry): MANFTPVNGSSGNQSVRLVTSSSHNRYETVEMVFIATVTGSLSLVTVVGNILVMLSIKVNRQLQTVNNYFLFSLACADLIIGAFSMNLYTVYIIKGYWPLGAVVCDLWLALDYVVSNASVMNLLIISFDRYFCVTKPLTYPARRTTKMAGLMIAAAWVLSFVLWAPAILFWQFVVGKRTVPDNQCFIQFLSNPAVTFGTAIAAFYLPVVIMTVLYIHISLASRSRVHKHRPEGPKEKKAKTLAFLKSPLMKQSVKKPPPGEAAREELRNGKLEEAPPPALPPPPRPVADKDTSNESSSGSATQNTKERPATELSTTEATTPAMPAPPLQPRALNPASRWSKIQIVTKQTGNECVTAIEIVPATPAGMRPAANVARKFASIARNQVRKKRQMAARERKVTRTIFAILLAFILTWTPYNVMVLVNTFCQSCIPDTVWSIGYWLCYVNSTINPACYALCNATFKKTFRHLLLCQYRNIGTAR
Kind of experiment: Binding affinity towards muscarinic receptor.

For a further experiment, the target named is D(2) dopamine receptor (Homo sapiens, UniProt P14416). Kind of experiment: Binding affinity towards dopamine D2 receptor.
Chain of D(2) dopamine receptor (P14416 whole entry): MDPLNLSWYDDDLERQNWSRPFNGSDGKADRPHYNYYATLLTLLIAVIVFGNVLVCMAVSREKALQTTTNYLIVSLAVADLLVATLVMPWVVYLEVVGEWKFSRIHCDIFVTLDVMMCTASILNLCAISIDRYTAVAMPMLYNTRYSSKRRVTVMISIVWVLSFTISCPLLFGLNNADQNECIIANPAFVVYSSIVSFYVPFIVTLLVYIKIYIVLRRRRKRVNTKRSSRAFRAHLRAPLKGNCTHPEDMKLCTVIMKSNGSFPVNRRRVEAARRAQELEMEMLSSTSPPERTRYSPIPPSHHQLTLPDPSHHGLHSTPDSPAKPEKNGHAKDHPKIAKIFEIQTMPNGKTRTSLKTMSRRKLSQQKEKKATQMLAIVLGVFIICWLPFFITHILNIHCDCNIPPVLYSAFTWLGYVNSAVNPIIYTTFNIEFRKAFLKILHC
Experiment [7] deals with Mus musculus. As to the kind of experiment: In vivo inhibitory activity against DOI-induced head twitches of mice after pretreatment for 15 hours upon peroral administration. The format is functional.
For experiment [8], the system named is Mus musculus. Kind of experiment: In vivo inhibitory activity against DOI-induced head twitches of mice after pretreatment for 1 hour upon subcutaneous administration. Format: functional.
Experiment [9] concerns Rattus norvegicus. As to the kind of experiment: In vivo inhibitory activity against mescaline-induced head twitches of rat after pretreatment for 1 hour upon subcutaneous administration. Format: functional.
The test system of experiment [10] is Rattus norvegicus. Kind of experiment: In vivo inhibitory activity against mescaline-induced head twitches of rat after pretreatment for 16 hours upon peroral administration. Format: functional.
Experiment [11] concerns Rattus norvegicus. Kind of experiment: In vivo inhibitory activity against mescaline-induced head twitches of rat after pretreatment for 6 hours upon peroral administration. Format: functional.
Where [12] appears, read: Rattus norvegicus, po, read-out: ED50.

Chain of 5-hydroxytryptamine receptor 2A (P14842 whole entry): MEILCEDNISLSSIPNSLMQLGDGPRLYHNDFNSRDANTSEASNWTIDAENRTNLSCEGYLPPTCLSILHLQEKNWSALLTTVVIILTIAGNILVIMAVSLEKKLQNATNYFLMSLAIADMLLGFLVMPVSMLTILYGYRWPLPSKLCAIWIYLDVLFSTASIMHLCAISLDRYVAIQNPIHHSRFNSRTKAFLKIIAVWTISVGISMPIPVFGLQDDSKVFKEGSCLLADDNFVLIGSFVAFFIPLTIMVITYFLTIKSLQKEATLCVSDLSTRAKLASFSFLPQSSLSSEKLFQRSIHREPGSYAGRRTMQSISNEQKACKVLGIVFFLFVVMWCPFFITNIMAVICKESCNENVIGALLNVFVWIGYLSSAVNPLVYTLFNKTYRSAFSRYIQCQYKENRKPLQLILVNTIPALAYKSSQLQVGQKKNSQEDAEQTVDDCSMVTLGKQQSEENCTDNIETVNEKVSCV
Chain of Histamine H1 receptor (P35367 whole entry): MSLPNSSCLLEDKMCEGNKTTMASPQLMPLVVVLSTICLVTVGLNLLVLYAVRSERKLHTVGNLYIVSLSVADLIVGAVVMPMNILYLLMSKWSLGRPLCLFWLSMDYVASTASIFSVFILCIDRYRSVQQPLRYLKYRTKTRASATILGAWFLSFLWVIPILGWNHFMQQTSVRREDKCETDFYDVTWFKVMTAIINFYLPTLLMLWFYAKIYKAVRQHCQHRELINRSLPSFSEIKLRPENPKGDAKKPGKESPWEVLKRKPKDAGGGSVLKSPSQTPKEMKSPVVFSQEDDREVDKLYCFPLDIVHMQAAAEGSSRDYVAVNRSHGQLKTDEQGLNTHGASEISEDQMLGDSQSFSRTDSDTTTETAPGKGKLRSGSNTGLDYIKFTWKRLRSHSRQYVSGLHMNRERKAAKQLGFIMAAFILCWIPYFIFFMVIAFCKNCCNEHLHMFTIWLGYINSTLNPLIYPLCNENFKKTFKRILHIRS

As to `c1ccc(N2CCN(C3CC[Si](c4ccccc4)(c4ccccc4)C3)CC2)cc1` (stereo unspecified), the 50% inhibitory concentration (IC50) in experiment [1] was determined as 1 nM. The median effective dose (ED50) in the experiment on Mus musculus [2] was determined as 45 mg/kg; in the experiment with Rattus norvegicus [3] (setting [12]) it was 84 mg/kg; in the experiment on Mus musculus [4], 68 mg/kg.
Consider `Oc1ccc(N2CCN(C3CC[Si](c4ccccc4)(c4ccccc4)C3)CC2)cc1` (stereo unspecified), for which, in [1], the IC50 worked out at 46 nM.
In [1], `c1ccc([Si]2(c3ccccc3)CCC(N3CCN(c4ncccn4)CC3)C2)cc1` (stereo unspecified) showed an IC50 of 80 nM.
On the same count and under the same terms, then `Cc1ccc(N2CCN(C3CC[Si](c4ccccc4)(c4ccccc4)C3)CC2)cc1` (stereo unspecified), with 10 nM; and `Fc1ccc(C2=CCN(C3CC[Si](c4ccccc4)(c4ccccc4)C3)CC2)cc1` (stereo unspecified), with 14 nM.
The same measure, in the same setting: then `c1ccc([Si]2(c3ccccc3)CCC(N3CCN(c4ccccn4)CC3)C2)cc1` (stereo unspecified), with 29 nM; and `Fc1ccc(N2CCN(C3CC[Si](c4ccc(F)cc4)(c4ccc(F)cc4)C3)CC2)cc1` (stereo unspecified), with 18 nM.
`Fc1cccc(N2CCN(C3CC[Si](c4ccccc4)(c4ccccc4)C3)CC2)c1` (stereo unspecified) yielded an IC50 in experiment [1] of 3.4 nM. This IC50 is about 5.3-fold lower than that of the molecule before.
Same read-out and setting: then `c1ccc(C2CCN(C3CC[Si](c4ccccc4)(c4ccccc4)C3)CC2)cc1` (stereo unspecified), with 53 nM; and `Clc1ccc(N2CCN(C3CC[Si](c4ccccc4)(c4ccccc4)C3)CC2)cc1` (stereo unspecified), with 25 nM; and `Cc1cccc(N2CCN(C3CC[Si](c4ccccc4)(c4ccccc4)C3)CC2)c1` (stereo unspecified), with 33 nM.
For the molecule `Fc1ccccc1N1CCN(C2CC[Si](c3ccccc3)(c3ccccc3)C2)CC1` (stereo unspecified), the IC50 in experiment [1] is 100 nM. Compared with the last molecule, the IC50 is about 3-fold higher.
`Fc1ccc(N2CCN(C3CC[Si](c4ccccc4)(c4ccccc4)C3)CC2)cc1` (stereo unspecified): the IC50 in experiment [1] amounted to 0.9 nM. In addition, the ED50 is 15 mg/kg in the experiment on Mus musculus [2] and 10 mg/kg with Mus musculus [4].
In the case of `Fc1ccc([Si]2(c3ccc(F)cc3)CCC(N3CCN(c4ccccc4)CC3)C2)cc1` (racemic), the IC50 on Histamine H1 receptor was more than 1000 nM; in experiment [5], 86 nM; in [6], more than 1000 nM; on D(2) dopamine receptor, 140 nM; in experiment [1], 2 nM. Further, the ED50 in the experiment with Mus musculus [7] was found to be 0.59 mg/kg; with Mus musculus [2] it was 0.44 mg/kg; in the experiment on Mus musculus [8], 0.73 mg/kg; with Rattus norvegicus [3] it was 1.93 mg/kg; in the experiment on Mus musculus [4], 1.38 mg/kg; with Rattus norvegicus [9], 10 mg/kg. The median effective dose (ED50) in the experiment with Rattus norvegicus [10] was 1.25 mg/kg; with Rattus norvegicus [11], 0.48 mg/kg.
With `Fc1ccc([Si]2(c3ccccc3)CCC(N3CCN(c4ccccc4)CC3)C2)cc1` (single isomer, unassigned), in experiment [1], the half-maximal inhibitory concentration (IC50) is 20 nM.
For `Fc1ccc([Si]2(c3ccc(F)cc3)CCC(N3CCN(c4ccccc4)CC3)C2)cc1` (single isomer, unassigned; (+)), the IC50 at Histamine H1 receptor is more than 1000 nM; in experiment [5] it was 100 nM; in experiment [6], more than 1000 nM; on D(2) dopamine receptor, 100 nM; in experiment [1] it was 3 nM. Also, the ED50 is 0.62 mg/kg with Mus musculus [7]; 0.59 mg/kg with Mus musculus [8]; 2.03 mg/kg in the experiment on Rattus norvegicus [3]; 1.56 mg/kg with Rattus norvegicus [9]; less than 2.5 mg/kg in the experiment with Rattus norvegicus [10] (setting [12]); less than 0.63 mg/kg in the experiment on Rattus norvegicus [11] (setting [12]).
Regarding `Fc1ccc([Si]2(c3ccc(F)cc3)CCC(N3CCN(c4ccccc4)CC3)C2)cc1` (single isomer, unassigned; (-)), the 50% inhibitory concentration (IC50) in experiment [1] stood at 25 nM. The ED50 is 10.5 mg/kg with Mus musculus [7], more than 5 mg/kg with Mus musculus [8], 10.25 mg/kg in the experiment on Rattus norvegicus [3] and 10.25 mg/kg with Rattus norvegicus [9].
Molecule `Fc1ccc([Si]2(c3ccccc3)CCC(N3CCN(c4ccccc4)CC3)C2)cc1` (stereo in doubt) yielded an IC50 in experiment [1] of 27 nM.
Molecule `Fc1ccc([Si]2(c3ccc(F)cc3)CCC(N3CCN(c4ccccc4)CC3)C2)cc1` (stereo in doubt) displayed an IC50 in experiment [1] of 16 nM.
Turning to `Cc1nc2sccn2c(=O)c1CCN1CCC(=C(c2ccc(F)cc2)c2ccc(F)cc2)CC1` [RITANSERIN], the 50% effective dose (ED50) is 0.08 mg/kg in the experiment on Mus musculus [7] (Mus musculus, po, read-out: ED50); 0.09 mg/kg in the experiment on Mus musculus [2]; 0.05 mg/kg in the experiment on Mus musculus [8] (Mus musculus, sc, read-out: ED50); 0.29 mg/kg in the experiment on Mus musculus [4]; 0.38 mg/kg in the experiment with Rattus norvegicus [9] (Rattus norvegicus, sc, read-out: ED50); 18.1 mg/kg with Rattus norvegicus [10] (setting [12]).

For the origin of these results see ChEMBL document CHEMBL1127235, “1,1-diphenyl-3-dialkylamino-1-silacyclopentane derivatives: A new class of potent and selective 5-HT2A antagonists” (Bioorg Med Chem Lett, 1994).
